Data taken from ChEMBL document CHEMBL4390652, “Design, biological evaluation and X-ray crystallography of nanomolar multifunctional ligands targeting simultaneously acetylcholinesterase and glycogen synthase kinase-3” (Eur J Med Chem, 2019).

Legend:
[1] = biological target: Death-associated protein kinase 3 (Homo sapiens) (UniProt O43293); assay: Binding affinity to wild-type human partial length DAPK3 (M1 to A277 residues) expressed in bacterial expression system assessed as residual binding level at 10 uM by Kinomescan method relative to control
[2] = biological target: Casein kinase I isoform gamma-3 (Homo sapiens) (UniProt Q9Y6M4); assay: Binding affinity to wild-type human full length CSNK1G3 (M1 to K447 residues) expressed in bacterial expression system assessed as residual binding level at 10 uM by Kinomescan method relative to control
MDR1 = assay: in vitro; details: dog, MDCK-MDR1
Description: Apparent permeability across basolateral to apical side in MDCK2-MDR1 cells by HPLC analysis

[3] = biological target: Cyclin-dependent kinase 3 (Homo sapiens) (UniProt Q00526); assay: Binding affinity to wild-type human full length CDK3 (M1 to H305 residues) expressed in bacterial expression system assessed as residual binding level at 10 uM by Kinomescan method relative to control
[4] = tested on: Epidermal growth factor receptor (Homo sapiens), P00533 [G719C]; assay: Binding affinity to human partial length EGFR G719C mutant (R669 to V1011 residues) expressed in bacterial expression system assessed as residual binding level at 10 uM by Kinomescan method relative to control
[5] = biological target: Serine/threonine-protein kinase BRSK2 (Homo sapiens) (UniProt Q8IWQ3); assay: Binding affinity to wild-type human full length BRSK2 (M1 to L674 residues) expressed in bacterial expression system assessed as residual binding level at 10 uM by Kinomescan method relative to control
[6] = biological target: Calcium/calmodulin-dependent protein kinase kinase 2 (Homo sapiens) (UniProt Q96RR4); assay: Binding affinity to wild-type human partial length CAMKK2 (D65 to V471 residues) expressed in bacterial expression system assessed as residual binding level at 10 uM by Kinomescan method relative to control
[7] = biological target: Eukaryotic translation initiation factor 2-alpha kinase 1 (Homo sapiens) (UniProt Q9BQI3); assay: Binding affinity to wild-type human partial length EIF2AK1 (Q147 to E603 residues) expressed in mammalian expression system assessed as residual binding level at 10 uM by Kinomescan method relative to control
[8] = tested on: Tyrosine-protein kinase ABL1 (Homo sapiens), P00519 [T315I]; assay: Binding affinity to human phosphorylated ABL1 T315I mutant (S229 to K512 residues) expressed in mammalian expression system assessed as residual binding level at 10 uM by Kinomescan method relative to control
[9] = biological target: Mitogen-activated protein kinase kinase kinase 15 (Homo sapiens) (UniProt Q6ZN16); assay: Binding affinity to wild-type human partial length MAP3K15 (T625 to L932 residues) expressed in mammalian expression system assessed as residual binding level at 10 uM by Kinomescan method relative to control
[10] = biological target: MAP kinase-interacting serine/threonine-protein kinase 2 (Homo sapiens) (UniProt Q9HBH9); assay: Binding affinity to wild-type human partial length MKNK2 (G63 to S388 residues) expressed in mammalian expression system assessed as residual binding level at 10 uM by Kinomescan method relative to control
[11] = biological target: Calcium/calmodulin-dependent protein kinase kinase 1 (Homo sapiens) (UniProt Q8N5S9); assay: Binding affinity to wild-type human partial length CAMKK1 (R65 to E414 residues) expressed in bacterial expression system assessed as residual binding level at 10 uM by Kinomescan method relative to control
[12] = biological target: LIM domain kinase 1 (Homo sapiens) (UniProt P53667); assay: Binding affinity to wild-type human full length LIMK1 (M1 to D647 residues) expressed in bacterial expression system assessed as residual binding level at 10 uM by Kinomescan method relative to control
[13] = biological target: 5'-AMP-activated protein kinase catalytic subunit alpha-1 (Homo sapiens) (UniProt Q13131); assay: Binding affinity to wild-type human partial length AMPK alpha1 (M1 to E306 residues) expressed in bacterial expression system assessed as residual binding level at 10 uM by Kinomescan method relative to control
[14] = tested on: Receptor-type tyrosine-protein kinase FLT3 (Homo sapiens), P36888 [R834Q]; assay: Binding affinity to human partial length FLT3 R834Q mutant (V592 to Y969 residues) expressed in mammalian expression system assessed as residual binding level at 10 uM by Kinomescan method relative to control
[15] = tested on: Phosphatidylinositol 4,5-bisphosphate 3-kinase catalytic subunit alpha isoform (Homo sapiens), P42336 [I800L]; assay: Binding affinity to human partial length PIK3CA I800L mutant (R108 to N1068 residues) expressed in mammalian expression system assessed as residual binding level at 10 uM by Kinomescan method relative to control
[16] = biological target: Casein kinase I isoform epsilon (Homo sapiens) (UniProt P49674); assay: Binding affinity to wild-type human full length CSNK1E (M1 to K416 residues) expressed in bacterial expression system assessed as residual binding level at 10 uM by Kinomescan method relative to control
[17] = biological target: Receptor tyrosine-protein kinase erbB-2 (Homo sapiens) (UniProt P04626); assay: Binding affinity to wild-type human partial length ERBB2 (K646 to V1225 residues) expressed in mammalian expression system assessed as residual binding level at 10 uM by Kinomescan method relative to control
[18] = biological target: Serine/threonine-protein kinase BRSK1 (Homo sapiens) (UniProt Q8TDC3); assay: Binding affinity to wild-type human partial length BRSK1 (M1 to E754 residues) expressed in bacterial expression system assessed as residual binding level at 10 uM by Kinomescan method relative to control
MDCK-MDR1 = assay: Cytotoxicity against MDCK2-MDR1 cells assessed as reduction in cell viability at 75 uM incubated for 2 hrs by MTT assay; type: ADME, cell-based, Canis lupus familiaris; details: dog, mdck-mdr1, 2 h
[19] = biological target: Serine/threonine-protein kinase Nek1 (Homo sapiens) (UniProt Q96PY6); assay: Binding affinity to wild-type human partial length NEK1 (M1 to K278 residues) expressed in bacterial expression system assessed as residual binding level at 10 uM by Kinomescan method relative to control
[20] = biological target: Activin receptor type-1 (Homo sapiens) (UniProt Q04771); assay: Binding affinity to wild-type human ACVR1 (C188 to C509 residues) expressed in bacterial expression system assessed as residual binding level at 10 uM by Kinomescan method relative to control
[21] = biological target: Phosphorylase b kinase gamma catalytic chain, liver/testis isoform (Homo sapiens) (UniProt P15735); assay: Binding affinity to wild-type human partial length PHKG2 (M1 to W300 residues) expressed in bacterial expression system assessed as residual binding level at 10 uM by Kinomescan method relative to control
[22] = biological target: Cyclin-dependent kinase 13 (Homo sapiens) (UniProt Q14004); assay: Binding affinity to wild-type human partial length CDC2L5 (H675 to S1054 residues) expressed in mammalian expression system assessed as residual binding level at 10 uM by Kinomescan method relative to control
[23] = biological target: Dual specificity mitogen-activated protein kinase kinase 6 (Homo sapiens) (UniProt P52564); assay: Binding affinity to wild-type human partial length MEK6 (K36 to D334 residues) expressed in bacterial expression system assessed as residual binding level at 10 uM by Kinomescan method relative to control

Death-associated protein kinase 3 (Homo sapiens), sequence (O43293 whole entry, looked up, the tested form may be a part, canonical isoform): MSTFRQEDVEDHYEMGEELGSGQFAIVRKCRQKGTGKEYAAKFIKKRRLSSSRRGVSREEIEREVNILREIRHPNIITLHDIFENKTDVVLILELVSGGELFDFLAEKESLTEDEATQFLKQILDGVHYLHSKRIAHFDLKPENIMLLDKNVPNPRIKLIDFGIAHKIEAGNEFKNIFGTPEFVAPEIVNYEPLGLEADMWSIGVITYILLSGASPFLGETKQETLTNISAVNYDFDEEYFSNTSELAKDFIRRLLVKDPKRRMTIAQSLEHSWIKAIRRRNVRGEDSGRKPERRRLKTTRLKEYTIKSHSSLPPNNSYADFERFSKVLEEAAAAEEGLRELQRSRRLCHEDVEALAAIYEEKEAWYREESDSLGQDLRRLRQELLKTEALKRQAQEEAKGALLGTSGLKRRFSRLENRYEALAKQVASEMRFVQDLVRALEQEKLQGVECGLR
Calcium/calmodulin-dependent protein kinase kinase 1 (Homo sapiens), sequence (Q8N5S9 whole entry, looked up, the tested form may be a part): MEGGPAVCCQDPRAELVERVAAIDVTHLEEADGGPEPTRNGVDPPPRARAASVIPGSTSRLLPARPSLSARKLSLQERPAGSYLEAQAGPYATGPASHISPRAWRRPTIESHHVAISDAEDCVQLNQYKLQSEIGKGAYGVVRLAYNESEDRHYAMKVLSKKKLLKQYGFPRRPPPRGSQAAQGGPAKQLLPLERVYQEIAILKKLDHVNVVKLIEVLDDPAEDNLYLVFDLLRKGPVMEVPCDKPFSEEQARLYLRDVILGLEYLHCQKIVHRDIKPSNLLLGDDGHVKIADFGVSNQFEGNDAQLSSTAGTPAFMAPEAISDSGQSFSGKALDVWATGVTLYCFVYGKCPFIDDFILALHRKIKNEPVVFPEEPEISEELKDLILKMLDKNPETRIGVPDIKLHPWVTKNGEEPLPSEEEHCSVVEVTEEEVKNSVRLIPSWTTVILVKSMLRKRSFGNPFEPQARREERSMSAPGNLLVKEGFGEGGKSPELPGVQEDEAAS
5'-AMP-activated protein kinase catalytic subunit alpha-1 (Homo sapiens), sequence (Q13131 whole entry, looked up, the tested form may be a part): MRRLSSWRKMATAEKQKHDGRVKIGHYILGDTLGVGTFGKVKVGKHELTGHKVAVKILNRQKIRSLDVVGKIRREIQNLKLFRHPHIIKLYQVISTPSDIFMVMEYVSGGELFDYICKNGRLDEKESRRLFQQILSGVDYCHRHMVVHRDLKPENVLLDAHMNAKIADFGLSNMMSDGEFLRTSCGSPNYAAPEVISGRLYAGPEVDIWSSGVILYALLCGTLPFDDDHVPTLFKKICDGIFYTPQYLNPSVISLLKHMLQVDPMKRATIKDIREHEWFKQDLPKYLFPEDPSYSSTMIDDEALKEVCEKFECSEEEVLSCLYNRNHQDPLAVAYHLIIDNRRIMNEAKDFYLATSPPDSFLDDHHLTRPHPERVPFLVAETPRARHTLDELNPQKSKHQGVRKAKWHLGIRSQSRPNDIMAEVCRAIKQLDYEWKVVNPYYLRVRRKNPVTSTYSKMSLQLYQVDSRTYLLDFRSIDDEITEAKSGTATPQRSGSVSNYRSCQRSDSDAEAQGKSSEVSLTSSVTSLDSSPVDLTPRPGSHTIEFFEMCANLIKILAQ
Serine/threonine-protein kinase BRSK2 (Homo sapiens), sequence (Q8IWQ3 whole entry, the tested form may be a part): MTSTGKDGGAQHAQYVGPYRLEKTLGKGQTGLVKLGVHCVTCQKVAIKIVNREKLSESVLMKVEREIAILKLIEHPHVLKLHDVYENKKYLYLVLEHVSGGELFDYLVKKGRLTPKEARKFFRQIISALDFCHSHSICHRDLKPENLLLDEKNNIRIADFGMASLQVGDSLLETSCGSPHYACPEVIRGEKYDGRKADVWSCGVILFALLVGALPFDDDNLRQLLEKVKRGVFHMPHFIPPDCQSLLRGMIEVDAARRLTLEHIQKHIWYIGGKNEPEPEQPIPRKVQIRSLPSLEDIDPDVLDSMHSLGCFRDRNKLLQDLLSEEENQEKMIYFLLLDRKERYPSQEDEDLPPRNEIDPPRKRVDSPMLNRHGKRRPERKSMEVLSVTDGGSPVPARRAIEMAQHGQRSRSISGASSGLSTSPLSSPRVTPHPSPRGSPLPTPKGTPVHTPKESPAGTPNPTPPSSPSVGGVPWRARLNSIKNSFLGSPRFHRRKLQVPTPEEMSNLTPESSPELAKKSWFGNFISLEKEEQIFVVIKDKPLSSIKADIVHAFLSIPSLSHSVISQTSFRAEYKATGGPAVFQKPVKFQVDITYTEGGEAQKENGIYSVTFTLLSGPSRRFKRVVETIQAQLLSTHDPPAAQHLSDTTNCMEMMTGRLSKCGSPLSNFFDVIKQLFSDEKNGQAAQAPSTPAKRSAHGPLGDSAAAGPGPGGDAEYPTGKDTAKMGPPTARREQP
Receptor tyrosine-protein kinase erbB-2 (Homo sapiens), sequence (P04626 whole entry, the tested form may be a part): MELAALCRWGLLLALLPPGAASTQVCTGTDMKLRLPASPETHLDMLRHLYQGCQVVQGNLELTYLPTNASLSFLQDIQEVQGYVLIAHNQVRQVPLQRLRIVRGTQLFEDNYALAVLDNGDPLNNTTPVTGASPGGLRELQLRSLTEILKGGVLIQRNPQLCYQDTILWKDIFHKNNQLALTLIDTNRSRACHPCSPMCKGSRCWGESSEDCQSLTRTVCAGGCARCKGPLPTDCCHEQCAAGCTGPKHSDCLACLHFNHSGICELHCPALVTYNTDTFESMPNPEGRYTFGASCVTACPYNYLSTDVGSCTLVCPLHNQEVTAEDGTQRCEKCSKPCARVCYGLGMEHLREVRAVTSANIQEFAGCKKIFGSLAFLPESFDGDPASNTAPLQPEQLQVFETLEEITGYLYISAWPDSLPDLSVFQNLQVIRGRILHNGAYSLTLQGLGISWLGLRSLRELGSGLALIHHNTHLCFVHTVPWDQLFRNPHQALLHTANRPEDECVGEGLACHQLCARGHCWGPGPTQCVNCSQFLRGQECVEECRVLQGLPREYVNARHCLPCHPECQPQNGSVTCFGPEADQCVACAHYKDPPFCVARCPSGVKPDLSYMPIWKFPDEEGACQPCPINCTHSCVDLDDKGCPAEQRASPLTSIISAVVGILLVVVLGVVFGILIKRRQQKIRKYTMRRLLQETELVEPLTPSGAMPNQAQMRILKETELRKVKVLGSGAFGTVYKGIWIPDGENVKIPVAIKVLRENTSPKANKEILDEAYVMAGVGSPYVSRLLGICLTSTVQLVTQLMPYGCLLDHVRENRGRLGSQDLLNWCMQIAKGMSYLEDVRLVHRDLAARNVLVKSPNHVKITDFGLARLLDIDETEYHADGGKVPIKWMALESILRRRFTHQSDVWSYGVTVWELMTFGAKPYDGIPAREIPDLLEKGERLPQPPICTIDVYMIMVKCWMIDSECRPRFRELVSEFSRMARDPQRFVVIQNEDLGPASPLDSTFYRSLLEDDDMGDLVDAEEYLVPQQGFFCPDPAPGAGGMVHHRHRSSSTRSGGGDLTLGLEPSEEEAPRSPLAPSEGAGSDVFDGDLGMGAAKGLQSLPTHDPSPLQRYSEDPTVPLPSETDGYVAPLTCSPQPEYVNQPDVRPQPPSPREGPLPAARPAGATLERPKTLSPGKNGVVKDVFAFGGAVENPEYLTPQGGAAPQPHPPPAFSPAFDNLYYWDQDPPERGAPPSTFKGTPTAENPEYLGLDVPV
Serine/threonine-protein kinase BRSK1 (Homo sapiens), sequence (Q8TDC3 whole entry, the tested form may be a part): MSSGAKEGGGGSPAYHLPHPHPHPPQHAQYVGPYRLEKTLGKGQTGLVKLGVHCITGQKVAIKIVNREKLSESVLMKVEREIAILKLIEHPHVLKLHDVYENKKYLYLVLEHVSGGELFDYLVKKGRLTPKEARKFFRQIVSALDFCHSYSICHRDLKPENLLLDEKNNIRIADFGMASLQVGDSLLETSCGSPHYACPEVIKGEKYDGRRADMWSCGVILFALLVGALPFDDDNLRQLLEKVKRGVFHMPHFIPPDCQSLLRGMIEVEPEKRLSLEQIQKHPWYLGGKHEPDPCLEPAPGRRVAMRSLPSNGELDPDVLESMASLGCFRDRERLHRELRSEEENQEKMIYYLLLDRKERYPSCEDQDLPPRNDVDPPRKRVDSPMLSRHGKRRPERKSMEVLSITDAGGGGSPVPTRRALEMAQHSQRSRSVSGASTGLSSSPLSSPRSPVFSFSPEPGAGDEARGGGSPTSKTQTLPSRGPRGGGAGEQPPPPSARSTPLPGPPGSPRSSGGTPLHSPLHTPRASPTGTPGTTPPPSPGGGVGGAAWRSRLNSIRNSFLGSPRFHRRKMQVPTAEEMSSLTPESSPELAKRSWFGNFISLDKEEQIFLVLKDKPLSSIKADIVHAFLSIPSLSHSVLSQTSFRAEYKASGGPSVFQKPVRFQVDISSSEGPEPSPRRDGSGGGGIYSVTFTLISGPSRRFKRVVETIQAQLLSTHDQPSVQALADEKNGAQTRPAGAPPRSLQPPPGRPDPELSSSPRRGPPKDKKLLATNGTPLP
Calcium/calmodulin-dependent protein kinase kinase 2 (Homo sapiens), sequence (Q96RR4 2-588 limits assumed): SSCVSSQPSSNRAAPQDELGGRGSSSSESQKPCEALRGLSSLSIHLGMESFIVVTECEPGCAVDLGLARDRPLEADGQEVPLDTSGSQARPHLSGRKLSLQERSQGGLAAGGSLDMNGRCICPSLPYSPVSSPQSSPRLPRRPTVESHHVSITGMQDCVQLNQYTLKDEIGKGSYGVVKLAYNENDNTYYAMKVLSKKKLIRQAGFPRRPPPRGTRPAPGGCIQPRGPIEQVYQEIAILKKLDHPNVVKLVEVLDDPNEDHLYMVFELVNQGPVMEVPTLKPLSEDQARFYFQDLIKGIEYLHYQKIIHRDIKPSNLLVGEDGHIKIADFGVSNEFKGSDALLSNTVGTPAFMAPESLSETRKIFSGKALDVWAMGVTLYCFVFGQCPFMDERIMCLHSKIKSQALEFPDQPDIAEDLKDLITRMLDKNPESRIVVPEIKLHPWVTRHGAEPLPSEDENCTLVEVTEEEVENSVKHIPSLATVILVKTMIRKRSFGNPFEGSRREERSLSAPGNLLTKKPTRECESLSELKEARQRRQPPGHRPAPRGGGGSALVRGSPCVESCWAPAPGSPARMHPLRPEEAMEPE

## O=C(Nc1cc(-c2cn(CCNc3c4c(nc5ccccc35)CCCC4)nn2)ccn1)Nc1cccc2c1C1CCCCN1C2=O (racemic)
[1]
  Activity: 66%
[2]
  Activity: 80%
MDR1
  Papp B→A: 16.8 ×10⁻⁶ cm/s
[3]
  Activity: 90%
[4]
  Activity: 78%
[5]
  Activity: 70%
[6]
  Activity: 18%
[7]
  Activity: 100%
[8]
  Activity: 2.9%
[9]
  Activity: 100%
[10]
  Activity: 72%
[11]
  Activity: 23%
[12]
  Activity: 100%
[13]
  Activity: 31%
[14]
  Activity: 1.3%
[15]
  Activity: 55%
[16]
  Activity: 0.15%
[17]
  Activity: 100%
[18]
  Activity: 66%
MDCK-MDR1
  Activity: Non-Toxic
[19]
  Activity: 80%
[20]
  Activity: 49%
[21]
  Activity: 50%
[22]
  Activity: 0.61%
[23]
  Activity: 63%
